Results from article PMC10502027, “Class III hybrid cluster protein homodimeric architecture shows evolutionary relationship with Ni, Fe-carbon monoxide dehydrogenases” (Nature Communications, 2023).

Biological target: T1, Mm HCP (Methanothermobacter marburgensis, UniProt D9PYV4)
T1 construct: full length with N-terminal rubredoxin domain (Met1-Arg52), C-terminal His6-tag, recombinant from E. coli C41(DE3) with pBBRISC, anaerobically purified; homodimer
T1 sequence (D9PYV4 1-491): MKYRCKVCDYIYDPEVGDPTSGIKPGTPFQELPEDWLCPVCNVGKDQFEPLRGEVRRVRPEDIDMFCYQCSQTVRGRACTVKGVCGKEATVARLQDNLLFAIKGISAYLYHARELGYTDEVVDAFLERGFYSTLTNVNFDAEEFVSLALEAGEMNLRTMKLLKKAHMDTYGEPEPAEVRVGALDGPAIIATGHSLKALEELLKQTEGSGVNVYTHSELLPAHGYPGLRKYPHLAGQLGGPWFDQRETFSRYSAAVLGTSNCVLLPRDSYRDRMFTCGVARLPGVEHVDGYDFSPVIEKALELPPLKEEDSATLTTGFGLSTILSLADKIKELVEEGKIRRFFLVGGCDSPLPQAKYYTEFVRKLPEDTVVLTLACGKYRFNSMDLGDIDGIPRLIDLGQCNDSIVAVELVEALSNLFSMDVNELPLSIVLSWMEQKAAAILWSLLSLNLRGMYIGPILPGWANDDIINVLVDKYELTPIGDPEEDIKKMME
Assay type: binding

## [S]12[Fe]3[S]4[Fe]1[S]1[Fe]2[S]3[Fe]41 [[4Fe-4S] cluster]
  X-ray crystal structure, 2.8 Å: The Fe ions, [4Fe-4S] cluster and hybrid cluster ([4Fe-2S-3O] cluster) are represented as spheres
